Laboratory results taken from article PMC3250963, “Novel dimeric DOTA-coupled peptidic Y1-receptor antagonists for targeting of neuropeptide Y receptor-expressing cancers” (EJNMMI Research, 2011).
Bridge positions count the residues as written; N and C are the ends. Square brackets hold non-standard residues; d marks the D form. Peptide text beside a SMILES is read from it. I, II: the chains in the order shown. * marks the point of attachment. DOTA = O=C(O)CN1CCN(CC(=O)O)CCN(CC(=O)*)CCN(CC(=O)O)CC1; Nle = CCCC[C@H](N)C(=O)O; Dap = NC[C@H](N)C(=O)O

Experiments:
NPY Y1 receptor [1] = biological target: T1, NPY Y1 receptor (Homo sapiens, UniProt P25929); experiment: Receptor autoradiography competition binding (125I-hPYY) on SK-N-MC cell membrane pellet sections; conditions: for IC50: SK-N-MC membrane pellets, 125I-hPYY displacement, mean ± SEM, n ≥ 3, read-out: Binding affinity Y1 (IC50); for Y1 binding affinity in words (displacement of 125I-hPYY): SK-N-MC cell membrane pellet sections
T1 construct: SK-N-MC cells endogenously expressing Y1; host or cells: SK-N-MC
T1 sequence (P25929 1-384): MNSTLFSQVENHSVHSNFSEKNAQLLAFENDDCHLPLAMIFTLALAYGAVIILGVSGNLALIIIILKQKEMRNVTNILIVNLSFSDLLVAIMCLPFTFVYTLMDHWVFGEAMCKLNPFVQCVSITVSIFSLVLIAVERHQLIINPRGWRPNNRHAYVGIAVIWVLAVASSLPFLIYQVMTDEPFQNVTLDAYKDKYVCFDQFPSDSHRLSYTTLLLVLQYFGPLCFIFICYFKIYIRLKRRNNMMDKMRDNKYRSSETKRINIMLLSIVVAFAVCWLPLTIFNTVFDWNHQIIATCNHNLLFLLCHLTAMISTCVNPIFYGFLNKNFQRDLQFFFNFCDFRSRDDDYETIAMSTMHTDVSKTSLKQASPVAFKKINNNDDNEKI
Protocol: (§1) The neuroepithelioma cell line SK-N-MC endogenously expressing the NPY Y1 receptor was obtained from ATCC (HTB-10; LGC Standards, Teddington, Middlesex, UK) and cultured at 37°C and 5% CO2 in MEM with GlutaMax I and supplemented with 10% FBS, 100 U/ml penicillin and 100 μg/ml streptomycin, 1 mM MEM sodium pyruvate, and MEM non-essential amino acids (× 1). The neuroblastoma cell line SH-SY5Y endogenously expressing the NPY Y2 receptor, kindly provided by Dr. Paolo Paganetti (Novartis, Basel, Switzerland), was cultured at 37°C and 5% CO2 in MEM/Ham's F12 with GlutaMax I and supplemented with 10% FBS, 100 U/ml penicillin and 100 μg/ml streptomycin, 1 mM MEM sodium pyruvate, and MEM non-essential amino acids (× 1). All culture reagents were from Gibco BRL, Life Technologies, (Grand Island, NY, USA).
(§2) Binding affinities of the compounds were assessed using sections of cell membrane pellets of SK-N-MC for Y1 or SH-SY5Y for Y2, as described before. Briefly, membrane pellets were prepared and stored at -80°C, and receptor autoradiography was performed on 20-μm-thick cryostat (Microm HM 500, Walldorf, Germany) sections of the membrane pellets, mounted on microscope slides and stored at -20°C as previously described for other cell lines and receptors. The slides were preincubated in Krebs-Ringer solution (NaCl 119 mM, KCl 3.2 mM, KH2PO4 1.19 mM, MgSO4 1.19 mM, NaHCO3 25 mM, CaCl2 2.53 mM, D-glucose 10 mM; pH 7.4) for 60 min at room temperature. Then, they were incubated for 120 min in the incubation solution containing the Krebs-Ringer solution, 0.1% BSA, 0.05% bacitracin, and 10,000 cpm/100 μl of the ^125I-labeled human PYY (hPYY; 2,000 Ci/mmol; Anawa, Wangen, Switzerland). Membrane pellet sections were incubated with ^125I-hPYY in increasing concentrations ranging from 0.1 nM up to 1,000 nM of non-labeled hPYY, as control, or with the compounds to be tested. After the incubation, the slides were washed two times for 5 min and then rinsed four times in ice-cold preincubation solution. After drying, the slides were exposed to Kodak films Biomax MR® for 7 days. IC50 values were calculated after quantification of the data using a computer-assisted image processing system (Analysis Imaging System, Interfocus, Mering, Germany). Tissue standards (autoradiographic [^125I] and/or [^14C] microscales, GE Healthcare, Little Chalfont, UK) containing a known amount of isotope, cross-calibrated to tissue-equivalent ligand concentrations were used for quantification.

NPY Y2 receptor = biological target: T2, NPY Y2 receptor (Homo sapiens, UniProt P49146); experiment: Receptor autoradiography competition binding (125I-hPYY) on SH-SY5Y cell membrane pellet sections; conditions: SH-SY5Y membrane pellets, 125I-hPYY displacement; n ≥ 3; read-out: Binding affinity Y2 (IC50)
T2 construct: SH-SY5Y cells endogenously expressing Y2; endogenous in cells; host or cells: SH-SY5Y
T2 sequence (P49146 1-381): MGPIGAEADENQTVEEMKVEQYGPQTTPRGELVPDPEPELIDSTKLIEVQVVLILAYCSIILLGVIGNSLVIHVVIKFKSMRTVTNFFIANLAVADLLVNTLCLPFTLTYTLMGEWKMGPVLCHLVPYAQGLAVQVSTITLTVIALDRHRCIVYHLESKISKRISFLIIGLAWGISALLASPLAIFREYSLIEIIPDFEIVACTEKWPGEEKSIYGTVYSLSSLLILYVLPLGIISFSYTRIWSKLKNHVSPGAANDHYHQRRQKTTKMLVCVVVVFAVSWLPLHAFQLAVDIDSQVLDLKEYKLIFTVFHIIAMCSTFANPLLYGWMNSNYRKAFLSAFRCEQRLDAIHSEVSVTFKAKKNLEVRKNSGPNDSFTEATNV
Protocol: as §1, §2

NPY Y1 receptor [2] = biological target: T1, NPY Y1 receptor; experiment: Forskolin-stimulated adenylate cyclase activity (cAMP flashplate assay) in SK-N-MC cells; format: cell-based; conditions: 10 μM forskolin; for Functional assay cAMP for Y1: analog 20 μM alone or with 100 nM [Leu31,Pro34]-hPYY
Protocol: Adenylate cyclase activity was determined in SK-N-MC cells using the adenylate cyclase activation flashplate assay (SMP004) from PerkinElmer (Waltham, MA, USA). SK-N-MC cells were seeded in 96-well culture plates at 25,000 cells/well and cultured for 48 h at 37°C and 5% CO2. Culture medium was then removed from the wells and fresh medium (100 μL) containing 0.5 mM 3-isobutyl-1-methylxanthine (IBMX) was added to each well. Cells were incubated for 30 min at 37°C. Medium was then removed and replaced with fresh medium containing 0.5 mM IBMX, with or without 10 μM forskolin and various concentrations of the peptides to be analyzed. Cells were incubated for 30 min at 37°C. After removal of the medium, cells were lysed and cAMP accumulation was determined using the SMP004 kit from PerkinElmer according to the instructions of the manufacturers.
Figure 4 Effect of various Y1 affine analogs on forskolin-stimulated intracellular cAMP accumulation in SK-N-MC cells. Cells were incubated for 30 min with 10 μM forskolin either alone, or with 10 μM forskolin in the presence of 20 μM or 100 nM of the reference compound [Leu^31, Pro^34]-PYY (LP-PYY), or with 10 μM forskolin in the presence of the various Y1 affine analogs either alone at a concentration of 20 μM or at a concentration of 20 μM in the presence of 100 nM LP-PYY. Intracellular cAMP accumulation was then determined as described in Methods. Results are shown as percentage of the 10 μM forskolin effect on intracellular cAMP accumulation.
Cells were incubated for 30 min with 10 μM forskolin in the presence of [Leu^31, Pro^34]-PYY (LP-PYY) at concentrations ranging between 0.01 nM and 20 μM alone (solid circle) or with 10 μM forskolin in the presence of LP-PYY at concentrations ranging between 0.01 nM and 20 μM supplemented with a fixed concentration of 20 μM of the analog 11 (solid square). […] Compound 11 given alone at a concentration of 20 μM has no effect on the accumulation of forskolin-stimulated cAMP (solid triangle).

Y5 = test system: Y5; parameters: method as in PMID 12182951; conditions: rats, in vivo; cited from earlier work

IC50 (NPY Y1 receptor [1])	IC50 (NPY Y2 receptor)	Functional assay cAMP for Y1 (NPY Y1 receptor [2])	Compound	Y1 binding affinity in words (displacement of 125I-hPYY) (NPY Y1 receptor [1])	other results
29 ± 7 nM	> 1000 nM		CCCC[C@H](NC(=O)[C@H](CCCNC(=N)N)NC(=O)[C@H](Cc1c[nH]c2ccccc12)NC(=O)[C@H](CSSC[C@H](NC(=O)[C@@H]1CCCN1C(=O)[C@H](CC(N)=O)NC(=O)[C@@H](N)[C@@H](C)CC)C(=O)N[C@@H](Cc1c[nH]c2ccccc12)C(=O)N[C@@H](CCCNC(=N)N)C(=O)N[C@@H](CCCC)C(=O)N[C@@H](CCCNC(=N)N)C(=O)N[C@@H](Cc1ccc(O)cc1)C(N)=O)NC(=O)[C@@H]1CCCN1C(=O)[C@H](CNC(=O)CN1CCN(CC(=O)O)CCN(CC(=O)O)CCN(CC(=O)O)CC1)NC(=O)[C@@H](N)[C@@H](C)CC)C(=O)N[C@@H](CCCNC(=N)N)C(=O)N[C@@H](Cc1ccc(O)cc1)C(N)=O [Analog 8] (I: H-I[Dap](DOTA)PCWR[Nle]RY-NH2 / II: H-INPCWR[Nle]RY-NH2; disulfide I:4-II:4)		
127 ± 50 nM	> 1000 nM		CCCC[C@H](NC(=O)[C@H](CCCNC(=N)N)NC(=O)[C@H](Cc1c[nH]c2ccccc12)NC(=O)[C@H](CSSC[C@H](NC(=O)[C@@H]1CCCN1C(=O)[C@H](CCCCN)NC(=O)[C@@H](N)[C@@H](C)CC)C(=O)N[C@@H](Cc1c[nH]c2ccccc12)C(=O)N[C@@H](CCCNC(=N)N)C(=O)N[C@@H](CCCC)C(=O)N[C@@H](CCCNC(=N)N)C(=O)N[C@@H](Cc1ccc(O)cc1)C(N)=O)NC(=O)[C@@H]1CCCN1C(=O)[C@H](CCCCN)NC(=O)[C@@H](N)[C@@H](C)CC)C(=O)N[C@@H](CCCNC(=N)N)C(=O)N[C@@H](Cc1ccc(O)cc1)C(N)=O [Analog 9] (I: H-IKPCWR[Nle]RY-NH2 / II: H-IKPCWR[Nle]RY-NH2; disulfide I:4-II:4)		
283 ± 52 nM	> 1000 nM	Antagonist	CCCC[C@H](NC(=O)[C@H](CCCNC(=N)N)NC(=O)[C@H](Cc1c[nH]c2ccccc12)NC(=O)[C@H](CSSC[C@H](NC(=O)[C@@H]1CCCN1C(=O)[C@H](CCCCNC(=O)CN1CCN(CC(=O)O)CCN(CC(=O)O)CCN(CC(=O)O)CC1)NC(=O)[C@@H](N)[C@@H](C)CC)C(=O)N[C@@H](Cc1c[nH]c2ccccc12)C(=O)N[C@@H](CCCNC(=N)N)C(=O)N[C@@H](CCCC)C(=O)N[C@@H](CCCNC(=N)N)C(=O)N[C@@H](Cc1ccc(O)cc1)C(N)=O)NC(=O)[C@@H]1CCCN1C(=O)[C@H](CCCCNC(=O)CN1CCN(CC(=O)O)CCN(CC(=O)O)CCN(CC(=O)O)CC1)NC(=O)[C@@H](N)[C@@H](C)CC)C(=O)N[C@@H](CCCNC(=N)N)C(=O)N[C@@H](Cc1ccc(O)cc1)C(N)=O [Analog 10] (I: H-IK(DOTA)PCWR[Nle]RY-NH2 / II: H-IK(DOTA)PCWR[Nle]RY-NH2; disulfide I:4-II:4)	lower affinity displacements of ^125I-hPYY	

Second part, the compound before the results:

Compound	IC50 (NPY Y1 receptor [1])	IC50 (NPY Y2 receptor)	Functional assay cAMP for Y1 (NPY Y1 receptor [2])	Y1 binding affinity in words (displacement of 125I-hPYY) (NPY Y1 receptor [1])	other results
CCCC[C@H](NC(=O)[C@H](CCCNC(=N)N)NC(=O)[C@H](Cc1c[nH]c2ccccc12)NC(=O)[C@H](CSSC[C@H](NC(=O)[C@@H]1CCCN1C(=O)[C@H](CC(N)=O)NC(=O)[C@@H](N)[C@@H](C)CC)C(=O)N[C@@H](Cc1c[nH]c2ccccc12)C(=O)N[C@@H](CCCNC(=N)N)C(=O)N[C@@H](CCCC)C(=O)N[C@@H](CCCNC(=N)N)C(=O)N[C@@H](Cc1ccc(O)cc1)C(N)=O)NC(=O)[C@@H]1CCCN1C(=O)[C@H](CCCCNC(=O)CN1CCN(CC(=O)O)CCN(CC(=O)O)CCN(CC(=O)O)CC1)NC(=O)[C@@H](N)[C@@H](C)CC)C(=O)N[C@@H](CCCNC(=N)N)C(=O)N[C@@H](Cc1ccc(O)cc1)C(N)=O [Analog 11] (I: H-IK(DOTA)PCWR[Nle]RY-NH2 / II: H-INPCWR[Nle]RY-NH2; disulfide I:4-II:4)	13 ± 3 nM	> 1000 nM	Antagonist	high-affinity displacements of ^125I-hPYY	Shift of the dose response curve of [Leu31,Pro34]-hPYY to the right (NPY Y1 receptor [2]; 20 μM analog with increasing concentration of [Leu31,Pro34]-hPYY up to 20 μM): at least three orders of magnitude; Inhibition of forskolin-stimulated cAMP accumulation, analog given alone (NPY Y1 receptor [2]; analog alone at 20 μM): has no effect
Bis(31/31')[Cys^31, Nva^34]NPY(27-36)-NH2					Stimulation of food intake (Y5): able to stimulate in vivo the food intake in rats
[Leu^31, Pro^34]-hPYY [reference compound]					Inhibition of forskolin-stimulated cAMP accumulation by agonist (NPY Y1 receptor [2]; agonist at 20 μM and 100 nM): efficiently inhibited forskolin-stimulated cAMP accumulation
